Test results from article PMC5511861, “DS16570511 is a small-molecule inhibitor of the mitochondrial calcium uniporter” (Cell Death Discovery, 2017).

Columns and labels:
[1] = biological target: T1, mitochondrial calcium uniporter (Homo sapiens, UniProt Q8NE86); experiment: Aequorin assay: serum-induced mitochondrial Ca2+ influx in HEK293A cells expressing mitochondria-targeted aequorin; assay type: cell-based; set-up: endogenous in cells; host or cells: HEK293A cells stably expressing mitochondria-targeted aequorin; details: 10% fetal bovine serum, 20 min pretreatment, read-out: IC50, inhibition of serum-induced mitochondrial Ca2+ influx
T1 sequence (Q8NE86 51-351): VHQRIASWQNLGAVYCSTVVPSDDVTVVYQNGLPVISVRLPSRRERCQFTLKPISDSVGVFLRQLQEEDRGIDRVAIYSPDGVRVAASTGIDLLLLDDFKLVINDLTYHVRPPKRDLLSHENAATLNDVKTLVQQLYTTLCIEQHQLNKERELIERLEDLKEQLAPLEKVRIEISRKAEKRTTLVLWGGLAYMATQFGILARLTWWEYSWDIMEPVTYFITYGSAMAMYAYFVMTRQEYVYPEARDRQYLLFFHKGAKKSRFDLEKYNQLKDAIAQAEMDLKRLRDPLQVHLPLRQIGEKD
T1 sequence (Q9H4I9 48-107 partner limits assumed): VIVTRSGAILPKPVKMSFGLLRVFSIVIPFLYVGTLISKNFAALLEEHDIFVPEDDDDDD
Protocol: (§1) In the first screening using the cell-based assay, application of 10% fetal bovine serum to the cells triggered a rapid increase of mitochondrial Ca^2+ level (Figure 1a). Pretreatment of the cells with DS16570511 inhibited the serum-induced mitochondrial Ca^2+ influx with an IC50 of 7 μM (Figures 1a and b). In order to eliminate broad channel inhibitors or chemicals affecting the aequorin-based detection system, a counter assay was carried out using HEK293A cells expressing aequorin in cytosol. In the assay, the concentration of DS16570511 used to decrease the serum-induced cytosolic Ca^2+ increase by 50% was ~50 μM.
Figure 1 DS16570511 inhibits mitochondrial Ca^2+ influx in HEK293A cells. (a) Representative raw data of serum-induced mitochondrial Ca^2+ influx in HEK293A cells. (b) Effect of DS16570511 on serum-induced mitochondrial Ca^2+ influx. The area under the curve of temporal aequorin activities is used for calculation of inhibitory activities. […]
For dynamic measurements of mitochondrial Ca^2+ levels in intact cells, HEK293A cells were stably transfected with pIRES-puro vector expressing mitochondria-targeted aequorin.[20] […] For induction of intracellular Ca^2+, the cells were treated with 10% fetal bovine serum, and luminescence levels were measured by using a Centro LB960 luminometer (Berthold Technologies, Oak Ridge, TN, USA).

[2] = tested on: rat perfused heart; experiment: Cardiac functions (heart rate, contractility) in rat isolated perfused heart
Protocol: We then investigated the effect of DS16570511 on cardiac functions in the perfused heart. We observed that heart rate was unaffected by DS16570511 in the range of 3–30 μM (Figure 7a). […] The increase of contractility was diminished by washout of the drug (Figure 7b), showing that the cardiac effect of DS16570511 is reversible.
Figure 7 Effects of DS16570511 on cardiac functions. (a) Effect of DS16570511 on heart rate in rat perfused heart. Data are mean with S.E.M. from more than four independent samples. (b) Representative data showing acute and reversible effect of DS16570511 on contractility. (c) Effect of DS16570511 on contractility in rat perfused heart. Plotted are values of pretreatment and 5 min after treatment of 10 or 30 μM DS16570511.
The hearts were rapidly excised from 9-week-old male Wistar rats and perfused at 37 °C with Krebs-Ringer perfusion buffer (127.2 mM NaCl, 4.7 mM KCl, 2.5 mM CaCl2, 1.2 mM KH2PO4, 1.2 mM MgSO4, 25 mM NaHCO3 and 5.5 mM glucose (pH 7.4)) equilibrated with 95% O2/5% CO2. A balloon was inserted through the left atrium into the left ventricle. Heart rate and contractility were continuously recorded with a data acquisition system (PowerLab, ADInstruments, Bella Vista, NSW, Australia).

[3] = tested on: serum-induced cytosolic Ca2+ increase in HEK293A cells; experiment: Counter assay: serum-induced cytosolic Ca2+ increase in HEK293A cells expressing aequorin in cytosol; assay type: cell-based, human; details: read-out: concentration used to decrease the serum-induced cytosolic Ca2+ increase by 50%
Protocol: as §1
For dynamic measurements of mitochondrial Ca^2+ levels in intact cells, HEK293A cells were stably transfected with pIRES-puro vector expressing mitochondria-targeted aequorin.[20] One day after plating on a 15-cm dish (8×10^6 cells/dish), the cells were harvested and incubated with 2.5 μM coelenterazine h in aequorin assay buffer (200 mM Hanks Balanced Salt Solution, 25 mM HEPES (pH 7.0) and 0.1% bovine serum albumin) for 2 h at room temperature. The cells (8.1×10^4 cells/well) were then treated with DS16570511 for 20 min in a 96-well plate at room temperature. For induction of intracellular Ca^2+, the cells were treated with 10% fetal bovine serum, and luminescence levels were measured by using a Centro LB960 luminometer (Berthold Technologies, Oak Ridge, TN, USA).

[4] = tested on: membrane potential of pig heart mitochondria; experiment: Mitochondrial membrane potential assay (JC-10) in pig heart mitochondria; assay type: biochemical; details: JC-10, 5 min incubation
Description: Next we analyzed the mechanism of action of DS16570511. The previous studies implicated two possible inhibitory mechanisms for the mitochondrial Ca^2+ uptake: (1) direct blockade of the calcium uniporter and (2) disruption of the membrane potential.[20],[21] Mitochondrial Ca^2+ uptake is mediated by electrical potential across the mitochondrial inner membrane, which is generated by the oxidative phosphorylation system. […] To examine effects on the mitochondrial membrane potential, fluorescent indicator JC-10 was used in mitochondria from pig heart.
(a) Effect of FCCP on Ca^2+ uptake of pig heart mitochondria. […] Relative membrane potential 0 or 100% is defined as value of 1 μM FCCP-treated mitochondria or vehicle-treated mitochondria, respectively. Data are mean with S.E.M. from three (a) or four (b) independent samples.
Pig heart mitochondria were prepared as described above and suspended in the swelling buffer containing 1 μM JC-10. The protein concentration of the solution was 5 mg/ml. Five minutes after incubation of the mitochondria with DS16570511 at room temperature, fluorescence intensities were measured by a FlexStation 3 (Molecular Devices, LLC, Sunnyvale, CA, USA) using the green channel (excitation/emission wavelength: 485/538 nm) or the red channel (excitation/emission wavelength: 485/612 nm).

## Cc1onc(-c2c(Cl)cccc2Cl)c1CNc1cccc(C(=O)c2cn(CCCC(=O)O)c3ccccc23)c1 [DS16570511]
[1]
  IC50: 7 µM
[2]; 3–30 μM
  effect on heart rate: unaffected
[2]; 10 or 30 μM, 5 min after treatment
  effect on cardiac contractility: increased cardiac contractility
[2]; washout of the drug
  reversibility of the cardiac effect on washout: reversible
[3]
  IC50: ~50 µM
[4]
  effect on mitochondrial membrane potential: not reduced
